Laboratory results reported in patent publication US20110111396A1, “BIOMARKERS FOR MONITORING THE TREATMENT BY QUINAZOLINONE COMPOUNDS” (priority 2007, published 2011).

How the values were obtained:
Assay type in all cases: cell-based
[1] = system: NHL cell lines (Namalwa, Rec-1, Jeko-1, Granta-519, JVM-2, DB); test: NHL cell proliferation by 3H-thymidine incorporation assay
Experimental: As detailed below, the effect of the administration of a quinazolinone compound on several types of NHL cells was determined after 3 days using 3H-thymidine incorporation, microbead array technology and real time PCR.
To better understand how the effectiveness of quinazolinone compound administration varies among different cancer cell types, the quinazolinone compound 3-(2,5-dimethyl-4-oxo-4H-quinazolin-3-yl)-piperidine-2,6-dione was tested in vitro for its anti-proliferative effect in several NHL cell lines after 3 days of treatment.
(§1) NHL cell proliferation was assessed by 3H-thymidine incorporation assay. Briefly, cells were cultured in 96 well cell culture plates in complete RPMI-1640 medium in the presence and absence of drugs. Following incubation at 37° C. for 3 days, 1μCi 3H-thymidine was added to each well for the last 5 hours of incubation. The 3H incorporation of each well was then measured. The six tested cell lines were Namalwa, Rec-1, Jeko-1, Granta-519, JVM-2, and DB.

SPARC mRNA = SPARC mRNA level in NHL cells by real-time RT-PCR; settings: sensitive NHL cells; 24 hours of incubation; 10 μM; FIG. 2
Experimental: The effect of the administration of 3-(2,5-dimethyl-4-oxo-4H-quinazolin-3-yl)-piperidine-2,6-dione in various NHL cells was measured after 24 hours of incubation, using real-time RT-PCR (FIG. 2).
The following exemplary procedures can be used. Upon purification of total RNA, real-time PCR is performed with 100 ng of total RNA, using an Applied Biosystems 7500 instrument (Applied Biosystems, Foster City, Calif.) using TaqMan Sequence Detection chemistry which uses a fluorogenic probe (FAM) to enable the detection of a specific PCR product as it accumulates during PCR. Samples are prepared in triplicate in 50 μl reaction volumes. […]
TaqMan® Gene Expression Assays are pre-formulated gene expression assays for rapid, reliable detection and quantification of human, mouse and rat mRNA transcripts. […] Data is analyzed using 7500 Real-Time PCR System Sequence Detection software v1.3 using the comparative CT relative quantification calculation method. The output is expressed as a fold-change of expression levels. The threshold level is selected to be automatically determined by the software and is set to be above the baseline but sufficiently low to be within the exponential growth region of an amplification curve. The cycle number at which the fluorescence signal associated with a particular amplicon accumulation crosses the threshold is referred to as the CT.

DB cell line = test: NHL cell proliferation by 3H-thymidine incorporation assay, DB cell line; settings: DB cells with t(14;18)
Experimental: as §1
Thus t(14;18) may be a negative prognostic factor in predicting clinical response to 3-(2,5-dimethyl-4-oxo-4H-quinazolin-3-yl)-piperidine-2,6-dione. Thus, SPARC gene expression can be used as a biomarker of NHL or MCL tumor response to quinazolinone compounds such as 3-(2,5-dimethyl-4-oxo-4H-quinazolin-3-yl)-piperidine-2,6-dione.

SMILES	order of sensitivity of the various NHL cell lines [1]	expression of SPARC mRNA (SPARC mRNA)	anti-proliferative activity against NHL cells ([1]; 3 days of treatment, 0.01, 0.1, 1, 10 and 100 μM, FIG. 1)	dose dependence of the anti-proliferative effect ([1]; ranges tested 0, 0.01, 0.1, 1, 10 and 100 μM, especially in MCL cell lines)	response of DB cell line (rate of cell proliferation) (DB cell line)
Nc1cccc2c1CN(C1CCC(=O)NC1=O)C2=O (centres unmarked) [1-oxo-2-(2,6-dioxopiperidin-3-yl)-4-aminoisoindoline, reference compound]	Namalwa (Burkitt's lymphoma)>Jeko-1>Rec-1>JVM-2>Granta-519 (all Mantle Cell Lymphomas, MCL)>DB				
Cc1cccc2nc(C)n(C3CCC(=O)NC3=O)c(=O)c12 (centres unmarked) [3-(2,5-dimethyl-4-oxo-4H-quinazolin-3-yl)-piperidine-2,6-dione]		increased the expression of SPARC mRNA	demonstrated anti-proliferative activity	dose dependent	increased rate of cell proliferation
